Assay results published in patent US11696914B1 (priority 2019, dated 2023).
Where two headings read alike, the source gives them in different places.

How the values were obtained:
[1] = system: Vesicular Stomatitis Virus (VSV) pseudotyped with EBOV glycoprotein; assay: microbe, parasite or virus in culture; format: cell-based, Ebola virus; details: HeLa, read-out: IC50, inhibition of EBOV-VSV pseudovirus entry
[2] = system: Marburg virus (MARV), Musoke strain; assay: organism not typed; format: cell-based; details: HeLa; n=6; read-out: IC50 ± SEM versus MARV Musoke strain
[3] = system: Ebola virus/H.sapiens-tc/COD/1995/Kikwit-9510621 (EBOV/Kik); assay: microbe, parasite or virus in culture; format: cell-based; details: Zaire ebolavirus, HeLa
[4] = system: Ebola virus/H.sapiens-tc/GIN/2014/Makona-005 (EBOV/Mak); assay: microbe, parasite or virus in culture; format: cell-based; details: Zaire ebolavirus, HeLa
[5] = system: Ebola virus/H.sapiens-tc/COD/1976/Yambuku-Mayinga (EBOV/May); assay: microbe, parasite or virus in culture; format: cell-based; details: Zaire ebolavirus, HeLa
[6] = system: Marburg virus/H.sapiens-tc/AGO/2005/Ang-1379v (MARV/Ang); assay: organism not typed; format: cell-based; details: HeLa
[7] = system: Marburg virus/H.sapiens-tc/KEN/1980/Mt. Elgon-Musoke (MARV/Mus); assay: organism not typed; format: cell-based; details: HeLa
Chikungunya virus = assay: microbe, parasite or virus in culture; format: cell-based; details: Vero 76
Ebola virus = assay: microbe, parasite or virus in culture; format: cell-based; details: Zaire ebolavirus, Vero 76
[8] = system: Venezuelian equine encephalitis virus; assay: microbe, parasite or virus in culture; format: cell-based; details: Venezuelan equine encephalitis virus, Vero 76
EBOV Zaire = assay: microbe, parasite or virus in culture; format: cell-based, Ebola virus; details: Zaire ebolavirus, HeLa
SARS-CoV-2 = assay: microbe, parasite or virus in culture; format: cell-based
[9] = system: murine hepatitis virus (MHV); assay: microbe, parasite or virus in culture; format: cell-based; details: Murine coronavirus, read-out: IC50 versus murine hepatitis virus (MHV)
SARS-CoV-2 Spike RBD = SARS-CoV-2 Spike RBD (Severe acute respiratory syndrome coronavirus 2, UniProt P0DTC2); format: binding
HeLa cells = details: human
[10] = mouse, microsomes
[11] = guinea pig, microsomes
[12] = microsomes
[13] = human, microsomes
[14] = mouse, microsomes, 1 h, pH 7.4
[15] = guinea pig, pH 7.4
[16] = human, microsomes, 1 h, pH 7.4
in vitro [17] = details: African green monkey
in vitro [18] = details: human

**Q.** With `CCN(CC)CCCC(C)Nc1c2ccc(Cl)cc2nc2ccc(OC)cc12` (stereo not drawn) [Quinacrine] as the molecule, how does the IC50 [1] read?
**A.** The IC50 was 0.97 µM.

**Q.** What about the IC50 [2] of the same molecule?
**A.** Its IC50 is 0.775 ± 0.283 µM.

**Q.** And the IC50 [3]?
**A.** Its IC50 is 1.41 ± 0.25 µM.

**Q.** What about the IC50 [4] of the same molecule?
**A.** Its IC50 is 1.05 ± 0.26 µM.

**Q.** And the IC50 [5]?
**A.** The IC50 was 1.48 ± 0.65 µM.

**Q.** And the IC50 [6]?
**A.** The IC50 was 2.94 ± 0.76 µM.

**Q.** And the IC50 [7]?
**A.** The IC50 was 1.57 ± 0.17 µM.

**Q.** What about the EC50 (Chikungunya virus) of the same molecule?
**A.** The EC50 was 3.2 µM.

**Q.** What about the EC50 (Ebola virus) of the same molecule?
**A.** The EC50 was over 12.3 µM.

**Q.** What about the EC50 [8] of the same molecule?
**A.** Its EC50 is 4 µM.

**Q.** What about the EC50 (EBOV Zaire) of the same molecule?
**A.** Its EC50 is 0.35 µM.

**Q.** What about the IC50 (SARS-CoV-2; Severe acute respiratory syndrome coronavirus 2, A549-ACE2, read-out: IC50 against SARS-CoV-2) of the same molecule?
**A.** The IC50 was under 0.2 µM.

**Q.** What about the IC50 (SARS-CoV-2; read-out: IC50 against SARS-CoV-2) of the same molecule?
**A.** Its IC50 is about 0.122 µM.

**Q.** And the IC50 [9]?
**A.** The IC50 was 2.3 µM.

**Q.** And the “binding to SARS-CoV-2 Spike RBD” value (SARS-CoV-2 Spike RBD)?
**A.** Its value is “did not demonstrate reproducible binding”.

**Q.** What about the CC50 (HeLa cells) of the same molecule?
**A.** Its CC50 is 8.62 ± 0.02 µM.

**Q.** What about the Clint [10] of the same molecule?
**A.** The Clint was 110.0.

**Q.** And the “Dextromethorphan: compound, t1/2 normalized to dextromethorphan control” value [10]?
**A.** The value was 0.8.

**Q.** What about the t1/2 [10] of the same molecule?
**A.** Its t1/2 is 12.6 min.

**Q.** What about the Clint [11] of the same molecule?
**A.** The Clint was 81.3.

**Q.** And the “Dextromethorphan: compound, t1/2 normalized to dextromethorphan control” value [11]?
**A.** The value was 5.4.

**Q.** What about the t1/2 [11] of the same molecule?
**A.** Its t1/2 is 17.1 min.

**Q.** And the Clint [12]?
**A.** Its Clint is 137.4.

**Q.** And the “Dextromethorphan: compound, t1/2 normalized to dextromethorphan control” value [12]?
**A.** Its value is 1.

**Q.** What about the t1/2 ([12]; monkey) of the same molecule?
**A.** Its t1/2 is 10.1 min.

**Q.** What about the Clint [13] of the same molecule?
**A.** Its Clint is 50.5.

**Q.** And the “Dextromethorphan: compound, t1/2 normalized to dextromethorphan control” value [13]?
**A.** Its value is 1.4.

**Q.** What about the t1/2 [13] of the same molecule?
**A.** Its t1/2 is 27.5 min.

**Q.** What about the “Relative Peak Area/Abundance MLM” value [14] of the same molecule?
**A.** The value was 32.0%.

**Q.** What about the “Relative Peak Area/Abundance GPLM” value [15] of the same molecule?
**A.** Its value is 20.7%.

**Q.** What about the “Relative Peak Area/Abundance HLM” value [16] of the same molecule?
**A.** Its value is 32.3%.

**Q.** What about the CC50 (in vitro [17]) of the same molecule?
**A.** Its CC50 is 15 µM.

**Q.** And the CC50 (in vitro [18])?
**A.** Its CC50 is 6.2 µM.
